pEC50, pKi: −log10 of the molar value. Active and inactive are the calls of the source. The rule behind the calls is not given here.
Key:
Rhodesain = Rhodesain (Trypanosoma brucei rhodesiense, UniProt Q95PM0); test: Irreversible inhibition of Trypanosoma brucei rhodesiense rhodesain assessed as inhibition constant using Cbz-Phe-Arg-AMC as fluorogenic substrate by fluorometric assay
[1] = biological target: Rhodesain (Trypanosoma brucei rhodesiense) (UniProt Q95PM0); test: Irreversible inhibition of Trypanosoma brucei rhodesiense rhodesain assessed as Kinact using Cbz-Phe-Arg-AMC as fluorogenic substrate by fluorometric assay
Chain of Rhodesain (Trypanosoma brucei rhodesiense) (Q95PM0 1-450): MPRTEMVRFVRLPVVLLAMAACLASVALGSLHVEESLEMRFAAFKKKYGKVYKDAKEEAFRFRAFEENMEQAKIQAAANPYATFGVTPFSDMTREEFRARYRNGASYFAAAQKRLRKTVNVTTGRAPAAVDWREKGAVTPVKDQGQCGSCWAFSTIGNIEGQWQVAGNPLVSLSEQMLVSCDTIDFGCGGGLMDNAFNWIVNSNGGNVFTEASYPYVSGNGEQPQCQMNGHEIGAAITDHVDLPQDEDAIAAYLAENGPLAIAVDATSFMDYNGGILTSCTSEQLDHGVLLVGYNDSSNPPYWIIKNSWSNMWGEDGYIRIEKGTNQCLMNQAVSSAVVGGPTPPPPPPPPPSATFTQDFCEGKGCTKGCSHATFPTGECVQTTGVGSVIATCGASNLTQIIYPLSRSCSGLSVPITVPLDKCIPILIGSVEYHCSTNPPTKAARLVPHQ

Cathepsin B [2] = biological target: T1, Cathepsin B (Homo sapiens, UniProt P07858); test: Inhibition of human Cathepsin B at 20 uM using Cbz-Phe-Arg-AMC as fluorogenic substrate by fluorometric assay
Procathepsin L [3] = biological target: T2, Procathepsin L (Homo sapiens, UniProt P07711); test: Inhibition of human Cathepsin L at 20 uM using Cbz-Phe-Arg-AMC as fluorogenic substrate by fluorometric assay
Target sequence in this assay (P07711 114-333 limits assumed): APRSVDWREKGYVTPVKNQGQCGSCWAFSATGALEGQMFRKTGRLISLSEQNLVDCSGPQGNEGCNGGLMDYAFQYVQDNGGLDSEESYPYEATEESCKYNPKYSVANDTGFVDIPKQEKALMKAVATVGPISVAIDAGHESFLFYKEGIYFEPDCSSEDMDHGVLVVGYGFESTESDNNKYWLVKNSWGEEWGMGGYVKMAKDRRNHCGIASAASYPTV

[4] = biological target: Rhodesain (Trypanosoma brucei rhodesiense) (UniProt Q95PM0); test: Irreversible inhibition of Trypanosoma brucei rhodesiense rhodesain assessed as second order rate constant using Cbz-Phe-Arg-AMC as fluorogenic substrate by fluorometric assay
[5] = system: Trypanosoma brucei brucei; test: Antitrypanosomal activity against Trypanosoma brucei brucei BS449 assessed as luminescence incubated for 48 hrs by ATPlite assay; assay type: functional, organism-based; details: BS449, 48 h
[6] = biological target: T3, 20S proteasome (Homo sapiens) (UniProt P49721+P20618+P28074+P28062+P28065+P28072+P25786+P25787+P25788+P25789+P28066+P60900+O14818+Q8TAA3+P40306+A5LHX3+P49720+P28070+Q99436); test: Inhibition of human 20S proteasome caspase-like activity at 11 uM using Cbz-Leu-Leu-Glu-AMC as fluorogenic substrate by fluorometric assay; assay type: protein-complex assay
Cathepsin B [7] = biological target: T1, Cathepsin B; test: Irreversible inhibition of human Cathepsin B assessed as inhibition constant using Cbz-Phe-Arg-AMC as fluorogenic substrate by fluorometric assay
Cathepsin B [8] = biological target: T1, Cathepsin B; test: Irreversible inhibition of human Cathepsin B assessed as Kinact using Cbz-Phe-Arg-AMC as fluorogenic substrate by fluorometric assay
Procathepsin L [9] = biological target: T2, Procathepsin L; test: Irreversible inhibition of human Cathepsin L assessed as Kinact using Cbz-Phe-Arg-AMC as fluorogenic substrate by fluorometric assay
Target sequence in this assay (P07711 114-333 limits assumed): as above

Procathepsin L [10] = biological target: T2, Procathepsin L; test: Irreversible inhibition of human Cathepsin L assessed as second order rate constant using Cbz-Phe-Arg-AMC as fluorogenic substrate by fluorometric assay
Target sequence in this assay (P07711 114-333 limits assumed): as above

[11] = biological target: Genome polyprotein (dengue virus type 2) (UniProt P29990); test: Inhibition of Dengue virus NS2B-NS3 protease at 11 uM using Boc-Gly-Arg-Arg-AMC as fluorogenic substrate by fluorometric assay
Procathepsin L [12] = biological target: T2, Procathepsin L; test: Irreversible inhibition of human Cathepsin L assessed as inhibition constant using Cbz-Phe-Arg-AMC as fluorogenic substrate by fluorometric assay
Target sequence in this assay (P07711 whole entry): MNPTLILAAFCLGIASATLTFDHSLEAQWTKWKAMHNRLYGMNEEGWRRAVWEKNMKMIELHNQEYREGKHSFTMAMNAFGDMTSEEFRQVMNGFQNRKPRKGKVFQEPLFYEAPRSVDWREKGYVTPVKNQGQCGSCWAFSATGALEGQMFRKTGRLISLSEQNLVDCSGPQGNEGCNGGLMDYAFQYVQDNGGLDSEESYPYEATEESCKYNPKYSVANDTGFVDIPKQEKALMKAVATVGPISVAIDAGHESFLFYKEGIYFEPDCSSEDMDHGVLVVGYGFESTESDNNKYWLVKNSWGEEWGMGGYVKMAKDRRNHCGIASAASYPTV

Cathepsin B [13] = biological target: T1, Cathepsin B; test: Irreversible inhibition of human Cathepsin B assessed as second order rate constant using Cbz-Phe-Arg-AMC as fluorogenic substrate by fluorometric assay
[14] = Cytotoxicity against mouse J774.1 cells assessed as reduction in cell viability incubated for 48 hrs by MTT assay; assay type: toxicity, cell-based
[15] = biological target: T3, 20S proteasome (Homo sapiens); test: Inhibition of human 20S proteasome trypsin-like activity at 11 uM using Boc-Leu-Arg-Arg-AMC as fluorogenic substrate by fluorometric assay; assay type: protein-complex assay
[16] = biological target: T3, 20S proteasome (Homo sapiens); test: Inhibition of human 20S proteasome chymotrypsin-like activity at 11 uM using Succ-Leu-Leu-Val-Tyr-AMC as fluorogenic substrate by fluorometric assay; assay type: protein-complex assay
[17] = biological target: Rhodesain (Trypanosoma brucei rhodesiense) (UniProt Q95PM0); test: Irreversible inhibition of Trypanosoma brucei rhodesiense rhodesain assessed as no recovery of enzyme activity preincubated for 30 mins followed by substrate addition using Cbz-Phe-Arg-AMC as fluorogenic substrate by fluorometric 100-fold dilution assay

Chain of Rhodesain (Q95PM0 whole entry): as the sequence (Q95PM0 1-450) above

SMILES	pKi (Rhodesain)	Kinact [1]	Second-order inactivation rate constant (kinact/Ki) [4]	pEC50 [5]	CC50 at 48 h [14]	further results
O=C(NCc1ccccc1C(=O)N[C@H](/C=C/S(=O)(=O)Cc1ccccc1)CCc1ccccc1)c1cc(F)cc(F)c1	6.45	0.0125 s⁻¹	0.35 10^5/M/s			inhibition (Cathepsin B [2]): < 10%; inhibition (Procathepsin L [3]): 31%
O=C(NCc1ccccc1C(=O)N[C@H](/C=C(\F)S(=O)(=O)Cc1ccccc1)CCc1ccccc1)c1cc(F)cc(F)c1	6.22					
CN1CCN(C(=O)NCc2ccccc2C(=O)N[C@H](/C=C/S(=O)(=O)Cc2ccccc2)CCc2ccccc2)CC1	6.50	0.005 s⁻¹	0.16 10^5/M/s			
O=C(Cc1ccccc1C(=O)N[C@H](/C=C/S(=O)(=O)c1ccccc1)CCc1ccccc1)Nc1ccc(C(=O)O)cc1	6.54			4.55		
O=C(NCc1ccccc1C(=O)N[C@H](/C=C/S(=O)(=O)c1ccccc1)CCc1ccccc1)c1ccc2c(c1)OCCO2	6.30	0.0005 s⁻¹	0.01 10^5/M/s			inhibition (Cathepsin B [2]): < 10%; inhibition (Procathepsin L [3]): 41%
O=C(NCc1ccccc1C(=O)N[C@H](/C=C/S(=O)(=O)c1ccccc1)CCc1ccccc1)c1cc(F)cc(F)c1	6.96	0.0173 s⁻¹	1.59 10^5/M/s			inhibition [6]: 24%; pKi (Cathepsin B [7]): 5.52; Kinact (Cathepsin B [8]): 0.0022 s⁻¹; Kinact (Procathepsin L [9]): 0.0045 s⁻¹; Second-order inactivation rate constant (Procathepsin L [10]): 2.38 10^3/M/s; inhibition [11]: 11%; pKi (Procathepsin L [12]): 5.72; Kdiss (Cathepsin B [13]): 7.24 10^2/M/s
O=C(NCc1ccccc1C(=O)N[C@H](/C=C(\F)S(=O)(=O)c1ccccc1)CCc1ccccc1)c1cc(F)cc(F)c1	6.22					
O=C(NCc1ccccc1C(=O)N[C@H](/C=C(\F)S(=O)(=O)Oc1ccccc1)CCc1ccccc1)c1cc(F)cc(F)c1	6.20					inhibition (Cathepsin B [2]): < 10%; inhibition (Procathepsin L [3]): 14%
CC(=O)N(Cc1ccccc1C(=O)N[C@H](/C=C/S(=O)(=O)c1ccccc1)CCc1ccccc1)C(C)=O	6.03			5.24	36000 nM	
CC(=O)NCc1ccccc1C(=O)N[C@H](/C=C/S(=O)(=O)c1ccccc1)CCc1ccccc1	5.33			4.87	48000 nM	
O=C(NCc1ccccc1C(=O)N[C@H](/C=C(\F)S(=O)(=O)Cc1ccccc1)CCc1ccccc1)c1ccncc1	6.08					
O=C(NCc1ccccc1C(=O)N[C@H](/C=C/S(=O)(=O)Cc1ccccc1)CCc1ccccc1)c1ccccc1	6.41	0.0095 s⁻¹	0.24 10^5/M/s			
O=C(NCc1ccccc1C(=O)N[C@H](/C=C/S(=O)(=O)c1ccccc1)CCc1ccccc1)c1ccccc1	7.00			5.44	> 100000 nM	inhibition [6]: 39%; pKi (Cathepsin B [7]): 5.70; inhibition [15]: 23%; pKi (Procathepsin L [12]): 5.83; inhibition [16]: 14%
O=C(NCc1ccccc1C(=O)N[C@H](/C=C/S(=O)(=O)Cc1ccccc1)CCc1ccccc1)c1ccncc1	6.36	0.006 s⁻¹	0.14 10^5/M/s			
O=C(NCc1ccccc1C(=O)N[C@H](/C=C(\F)S(=O)(=O)c1ccccc1)CCc1ccccc1)c1ccccc1	6.25			5.48	43000 nM	inhibition [6]: 25%; inhibition (Cathepsin B [2]): < 10%; pKi (Procathepsin L [12]): 5.06
CN1CCN(C(=O)N[C@@H](Cc2ccccc2)C(=O)N[C@H](/C=C/S(=O)(=O)c2ccccc2)CCc2ccccc2)CC1 [K-777]					41000 nM	inhibition [17]: Active

Source: ChEMBL document CHEMBL5113413, “New peptidomimetic rhodesain inhibitors with improved selectivity towards human cathepsins” (Eur J Med Chem, 2022)
